Assay results: ChEMBL document CHEMBL1133700, “Chiral nonsteroidal affinity ligands for the androgen receptor. 1. Bicalutamide analogues bearing electrophilic groups in the B aromatic ring” (J Med Chem, 2000)

Target: T1, Androgen receptor (Rattus norvegicus, UniProt P15207)
T1 sequence (P15207 whole entry): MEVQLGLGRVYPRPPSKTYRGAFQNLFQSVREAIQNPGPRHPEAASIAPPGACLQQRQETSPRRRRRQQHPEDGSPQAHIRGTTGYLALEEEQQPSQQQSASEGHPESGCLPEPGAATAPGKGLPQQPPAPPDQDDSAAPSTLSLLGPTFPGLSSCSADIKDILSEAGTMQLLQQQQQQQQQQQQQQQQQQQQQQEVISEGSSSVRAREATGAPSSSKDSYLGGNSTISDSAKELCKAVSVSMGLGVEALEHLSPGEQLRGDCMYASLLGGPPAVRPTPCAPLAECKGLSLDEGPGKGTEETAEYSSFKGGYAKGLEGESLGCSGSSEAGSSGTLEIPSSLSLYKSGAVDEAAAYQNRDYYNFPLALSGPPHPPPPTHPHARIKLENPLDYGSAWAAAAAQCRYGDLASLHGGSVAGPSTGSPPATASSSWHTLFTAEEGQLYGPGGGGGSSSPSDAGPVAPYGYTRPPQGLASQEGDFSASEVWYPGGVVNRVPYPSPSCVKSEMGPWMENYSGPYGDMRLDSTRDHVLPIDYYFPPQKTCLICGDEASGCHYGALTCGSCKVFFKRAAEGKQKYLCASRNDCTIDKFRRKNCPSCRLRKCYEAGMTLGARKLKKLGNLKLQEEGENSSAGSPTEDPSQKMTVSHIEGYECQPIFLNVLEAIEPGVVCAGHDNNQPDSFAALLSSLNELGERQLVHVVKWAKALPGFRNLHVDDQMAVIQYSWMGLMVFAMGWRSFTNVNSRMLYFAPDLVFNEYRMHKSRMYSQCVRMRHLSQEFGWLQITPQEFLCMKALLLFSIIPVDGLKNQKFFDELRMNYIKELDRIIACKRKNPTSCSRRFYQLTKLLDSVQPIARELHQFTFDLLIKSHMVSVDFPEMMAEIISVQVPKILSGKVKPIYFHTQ
Assay: Binding Affinity towards Rat Androgen Receptor was determined using [3H]- mibolerone as radioligand.

Compound	Ki [nM]
C[C@](O)(CS(=O)(=O)c1ccc(N=C=S)cc1)C(=O)Nc1ccc(C#N)c(C(F)(F)F)c1	41
C[C@](O)(CS(=O)(=O)c1cccc(NC(=O)CCl)c1)C(=O)Nc1ccc(C#N)c(C(F)(F)F)c1	130
C[C@](O)(CSc1cccc(NC(=O)CCl)c1)C(=O)Nc1ccc(C#N)c(C(F)(F)F)c1	> 1000
C[C@](O)(CSc1cccc(NC(=O)CBr)c1)C(=O)Nc1ccc(C#N)c(C(F)(F)F)c1	> 1000
